Results taken from ChEMBL document CHEMBL3994665, “Pyrano[2,3,4-cd]indole as a Scaffold for Selective Nonbasic 5-HT6R Ligands” (ACS Med Chem Lett, 2017).

Key:
[1] = target: 5-hydroxytryptamine receptor 7 (Homo sapiens, UniProt P34969); experiment: Displacement of [3H]-5-CT from 5-HT7b receptor (unknown origin)
[2] = target: T1, 5-hydroxytryptamine receptor 1A (Homo sapiens, UniProt P08908); experiment: Displacement of [3H]-8-OH-DPAT from 5HT1A receptor (unknown origin)
T1 sequence (P08908 whole entry): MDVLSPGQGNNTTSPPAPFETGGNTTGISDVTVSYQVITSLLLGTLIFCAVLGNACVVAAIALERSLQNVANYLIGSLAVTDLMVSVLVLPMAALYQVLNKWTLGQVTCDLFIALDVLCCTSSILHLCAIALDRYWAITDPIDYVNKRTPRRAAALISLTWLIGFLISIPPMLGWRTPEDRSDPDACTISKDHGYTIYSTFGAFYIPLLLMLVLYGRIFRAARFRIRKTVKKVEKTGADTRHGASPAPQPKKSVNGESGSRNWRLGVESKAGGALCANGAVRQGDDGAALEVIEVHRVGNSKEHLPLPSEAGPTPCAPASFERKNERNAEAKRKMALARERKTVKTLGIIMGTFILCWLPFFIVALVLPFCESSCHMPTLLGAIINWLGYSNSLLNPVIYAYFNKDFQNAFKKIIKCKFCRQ

D(2) dopamine receptor = D(2) dopamine receptor (Homo sapiens, UniProt P14416); experiment: Displacement of [3H]-Raclopride from D2L receptor (unknown origin)
[3] = target: T2, 5-hydroxytryptamine receptor 6 (Homo sapiens, UniProt P50406); experiment: Displacement of [3H]-LSD from 5-HT6 receptor (unknown origin)
[4] = target: 5-hydroxytryptamine receptor 2A (Homo sapiens, UniProt P28223); experiment: Binding affinity to 5HT2A receptor (unknown origin)
[5] = target: T2, 5-hydroxytryptamine receptor 6; experiment: Antagonist activity at 5-HT6 receptor (unknown origin) expressed in HEK293 cells assessed as inhibition of 5-CT induced cAMP production after 30 mins by TR-FRET assay; format: functional, cell-based

5-hydroxytryptamine receptor 7, sequence (P34969 whole entry): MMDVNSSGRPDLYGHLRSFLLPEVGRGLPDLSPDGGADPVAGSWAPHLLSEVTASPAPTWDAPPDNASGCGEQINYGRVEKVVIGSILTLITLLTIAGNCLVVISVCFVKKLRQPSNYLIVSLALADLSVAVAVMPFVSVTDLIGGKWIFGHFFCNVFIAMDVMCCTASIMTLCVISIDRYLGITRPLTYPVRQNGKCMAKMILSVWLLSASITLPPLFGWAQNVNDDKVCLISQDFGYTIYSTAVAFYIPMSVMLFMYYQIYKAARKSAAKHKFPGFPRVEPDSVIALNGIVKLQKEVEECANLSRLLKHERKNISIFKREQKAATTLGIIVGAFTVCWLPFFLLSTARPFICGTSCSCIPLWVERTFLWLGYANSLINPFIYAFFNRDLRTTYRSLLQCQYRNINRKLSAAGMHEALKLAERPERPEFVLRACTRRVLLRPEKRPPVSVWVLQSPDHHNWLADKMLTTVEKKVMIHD
5-hydroxytryptamine receptor 2A, sequence (P28223 whole entry): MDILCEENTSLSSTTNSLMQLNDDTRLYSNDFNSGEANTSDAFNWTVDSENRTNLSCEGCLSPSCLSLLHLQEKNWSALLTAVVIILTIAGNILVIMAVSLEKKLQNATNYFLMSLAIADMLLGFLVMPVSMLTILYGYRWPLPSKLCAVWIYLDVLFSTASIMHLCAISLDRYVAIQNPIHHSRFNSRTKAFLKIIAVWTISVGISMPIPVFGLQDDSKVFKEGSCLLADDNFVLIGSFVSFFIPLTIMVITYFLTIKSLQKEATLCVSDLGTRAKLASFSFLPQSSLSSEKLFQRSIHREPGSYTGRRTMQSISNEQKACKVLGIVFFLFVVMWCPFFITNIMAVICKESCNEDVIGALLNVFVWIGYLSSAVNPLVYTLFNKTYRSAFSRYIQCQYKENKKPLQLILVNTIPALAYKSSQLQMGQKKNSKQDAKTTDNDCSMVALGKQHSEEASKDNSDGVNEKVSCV
D(2) dopamine receptor, sequence (P14416 whole entry): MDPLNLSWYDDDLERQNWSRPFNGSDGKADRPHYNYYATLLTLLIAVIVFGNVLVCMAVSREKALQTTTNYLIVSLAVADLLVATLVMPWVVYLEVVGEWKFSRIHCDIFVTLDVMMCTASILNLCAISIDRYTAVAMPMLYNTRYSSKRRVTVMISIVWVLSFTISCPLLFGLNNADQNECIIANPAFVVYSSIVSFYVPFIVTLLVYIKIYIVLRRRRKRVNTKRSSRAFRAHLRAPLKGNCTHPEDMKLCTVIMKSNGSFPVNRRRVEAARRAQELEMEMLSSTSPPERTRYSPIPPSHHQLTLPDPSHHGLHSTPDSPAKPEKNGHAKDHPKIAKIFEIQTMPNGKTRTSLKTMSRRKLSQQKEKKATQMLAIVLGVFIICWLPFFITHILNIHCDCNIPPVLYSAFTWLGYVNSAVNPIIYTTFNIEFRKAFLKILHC
T2 sequence (P50406 whole entry): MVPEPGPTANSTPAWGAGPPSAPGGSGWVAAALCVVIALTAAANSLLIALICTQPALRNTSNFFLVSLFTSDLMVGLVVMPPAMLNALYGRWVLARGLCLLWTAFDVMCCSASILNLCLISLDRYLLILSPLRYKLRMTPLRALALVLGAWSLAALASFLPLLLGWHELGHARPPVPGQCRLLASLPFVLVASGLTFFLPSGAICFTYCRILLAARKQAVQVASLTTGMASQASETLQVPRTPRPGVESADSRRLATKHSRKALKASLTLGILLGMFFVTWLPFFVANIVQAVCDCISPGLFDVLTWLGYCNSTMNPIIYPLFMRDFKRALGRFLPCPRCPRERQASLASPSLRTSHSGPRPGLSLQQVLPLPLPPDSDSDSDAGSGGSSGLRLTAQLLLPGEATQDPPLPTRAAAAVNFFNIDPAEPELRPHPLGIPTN

SMILES	Ki [1]	Ki [2]	Ki (D(2) dopamine receptor)	Ki [3]	Ki [4]	Kb [5]
O=S(=O)(c1cccc2ccccc12)n1cc2c3c(cccc31)OC(CO)=C2	> 10 µM	–	4.29 µM	0.004 µM	> 10 µM	–
CC1=C(CO)Oc2cccc3c2c1cn3S(=O)(=O)c1ccccc1	> 10 µM	> 10 µM	> 10 µM	0.052 µM	> 10 µM	–
CC1=C(CO)Oc2cccc3c2c1cn3S(=O)(=O)c1cccc2ccccc12	> 10 µM	> 10 µM	> 10 µM	0.02 µM	> 10 µM	–
O=S(=O)(c1ccccc1)n1cc2c3c(cccc31)OC(CO)=C2	> 10 µM	> 10 µM	> 10 µM	0.036 µM	> 10 µM	0.016 µM
CCN(CC)CC1=Cc2cn(S(=O)(=O)c3ccccc3)c3cccc(c23)O1	> 10 µM	> 10 µM	4.35 µM	0.028 µM	1.7 µM	–

Second part, led by results:

Ki [1]	Ki [2]	Ki (D(2) dopamine receptor)	Ki [3]	SMILES	Ki [4]	Kb [5]
> 10 µM	> 10 µM	> 10 µM	0.755 µM	N#CC1=Cc2cn(S(=O)(=O)c3cccc4ccccc34)c3cccc(c23)O1	–	–
3.69 µM	> 10 µM	6.7 µM	0.005 µM	CN(C)CC1=Cc2cn(S(=O)(=O)c3ccccc3)c3cccc(c23)O1	0.065 µM	–
> 10 µM	> 10 µM	5.16 µM	0.266 µM	O=CC1=Cc2cn(S(=O)(=O)c3cccc4ccccc34)c3cccc(c23)O1	–	–
0.438 µM	5.97 µM	1.49 µM	0.001 µM	CN(C)CC1=Cc2cn(S(=O)(=O)c3cccc4ccccc34)c3cccc(c23)O1	0.489 µM	–
